2 compounds from patent US5340815A, “2-substituted-4,6-di-tertiary-butyl-5-hydroxy-1,3-pyrimidines useful as antiinflammatory agents” (Warner-Lambert Company, priority 1993, dated 1994) can be followed below.

In one assay the test system is Cyclooxygenase. As to the kind of experiment: ARBC whole cell cyclooxygenase assay (PGF2α formation, RBL-1 cells). Type of assay: cell-based, rat. The following applies: 10 μM. As to the method: (§1) ARBL/ARBC Whole Cell 5-Lipoxygenase and Cyclooxygenase Assays The rat basophilic leukemia cell line (RBL-1) was obtained from the American Type Culture Collection (Rockville, Md.). Radioimmunoassay (RIA) kits of LTB4 and PGF2α were obtained from Amersham (Arlington Heights, Ill.) and Seragen (Boston, Mass.), respectively. All tissue culture media were obtained from GIBCO (Grand Island, N.Y.). RBL-1 cells are grown in suspension culture in Eagle's minimum essential medium supplemented with 12% fetal bovine serum at 37° C. in an incubator supplied with air-5% carbon dioxide. Cells are harvested by centrifugation. They are washed with cold phosphate buffered saline pH 7.4 (PBS; NaCl, 7.1 g; Na2 HPO4, 1.15 g; KH2 PO4, 0.2 g; and KCl, 0.2 g/l). Cells are finally suspended in PBS containing 1.0 mM calcium at a density of 2×10^6 cells/mi. Cells are incubated with and without test agent (in DMSO) (1% DMSO is without effect on arachidonic acid metabolism) for ten minutes at room temperature. Calcium ionophore A23187 (5 μM) is added and cells are incubated for 7 minutes at 37° C. The reaction is stopped by chilling the tubes on ice for 10 minutes. Cells are separated by centrifugation and the supernatant is stored at -20° Aliquots (100 μL) are analyzed for LTB4 and PGF2α using radioimmunoassay kits as provided by the supplier. […]

Assay [1] concerns Carrageenan-Induced Rat Foot Paw Edema. As to the kind of experiment: Carrageenan-induced rat foot paw edema-2 (CFE-2) assay. The following applies: 30 mg/kg, methanesulfonate salt, dosed one hour before carrageenan; edema at five hours. Type of assay: in vivo. On the procedure: Carrageenan-Induced Rat Foot Paw Edema-2 (CFE-2) Assay: Protocol
Carrageenan solution (1% w/v) is prepared by dissolving 100 mg carrageenan (Marine Colloidal Div., Springfield, N.J.) in 10 mL of sterile saline (0.9%) solution (Travenol). The solution is vortexed for 30 to 45 minutes. Animals are dosed with compound one hour before carrageenan challenge. Foot paw edema is induced by injecting 0.10 ml of the 1% carrageenan subcutaneously into the plantar portion of the right hind paw of each rat under light anesthesia. Initial foot paw volume is measured immediately following carrageenan challenge using mercury plethysmography (Buxco Electronics). Edema is measured five hours after carrageenan. The difference between the five-hour and the initial paw volume is expressed as delta edema. The delta edema for each test group of animals is used to calculate the percent inhibition of edema achieved by-the compound at the test dose compared with the vehicle control group. The ID40 (the dose at which swelling is inhibited by 40%) is calculated by probit analysis for the dose at which 40 percent inhibition occurs.
In general terms: The carrageenan paw model is a standard test of acute inflammation.

The subject of the next assay is 5-Lipoxygenase. As to the kind of experiment: ARBL whole cell 5-lipoxygenase assay (LTB4 formation, RBL-1 cells). Type of assay: cell-based, rat. The following applies: 10 μM. On the procedure:
as §1

The structures appear in SMILES notation.

Regarding `CC(C)(C)c1nc(/C=C/c2cccnc2)nc(C(C)(C)C)c1O` [Example 1, [E]-4,6-Bis(1,1-dimethylethyl)-2-[[2-(3-pyridinyl)]-ethenyl]-5-pyrimidinol], the “ARBC, % inhibition (PGF2α formation)” value with Cyclooxygenase was found to be 85%. Moreover, the “% Inhibition of Edema” value in assay [1] was determined as 45%. For the same compound, the “ARBL, % inhibition (LTB4 formation)” value in the assay on 5-Lipoxygenase is 100%.

With `Cc1cc(C=Cc2nc(C(C)(C)C)c(O)c(C(C)(C)C)n2)sn1` [Example 3], in the assay on Cyclooxygenase, the “ARBC, % inhibition (PGF2α formation)” value is 60%. Also, the “ARBL, inhibition class (LTB4 formation)” value with 5-Lipoxygenase is on record as “N* (<40% inhibition at 10 μM)”.
